Measured values reported in ChEMBL document CHEMBL1201862, “PubChem BioAssay data set” (2004).
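Method: 48-hour compound exposure of cells in 96-well plates, five concentrations, linear interpolation of endpoints. At the GI50, growth is halved.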 Activity calls are given as the source filed them. Rule as the data show it: active = GI50 up to about 1.1 µM and inactive = higher.

Experiments:
Assay in all cases: growth of human tumour cells (NCI), 48 h
OVCAR-5 = test system: OVCAR-5
OVCAR-3 = test system: OVCAR-3
SK-MEL-5 = test system: SK-MEL-5
EKVX = test system: EKVX
SN12C = test system: SN12C
HOP-92 = test system: HOP-92
NCI-H226 = test system: NCI-H226
NCI-H23 = test system: NCI-H23
U-251 = test system: U-251
NCI-H522 = test system: NCI-H522
HL-60 = test system: HL-60
KM12 = test system: KM12
M14 = test system: M14
LOX IMVI = test system: LOX IMVI
SR = test system: SR
NCI-H460 = test system: NCI-H460

Measured: GI50

COc1ccc2c(c1)C(=O)c1ccc(OC)cc1C2=S
inactive: OVCAR-5 > 100 µM | OVCAR-3 > 100 µM | SK-MEL-5 > 100 µM | EKVX > 100 µM | SN12C > 100 µM | HOP-92 > 100 µM | NCI-H226 > 100 µM | NCI-H23 > 100 µM | U-251 24.4 µM | NCI-H522 > 100 µM | HL-60 40.1 µM | KM12 > 100 µM | M14 > 100 µM | LOX IMVI > 100 µM | SR > 100 µM

COC(=O)c1csnn1
inactive: OVCAR-3 > 100 µM | SK-MEL-5 > 100 µM | NCI-H460 > 100 µM | EKVX > 100 µM | SN12C > 100 µM | NCI-H226 > 100 µM | NCI-H23 > 100 µM | U-251 > 100 µM | NCI-H522 > 100 µM | HL-60 > 100 µM | KM12 > 100 µM | M14 > 100 µM | LOX IMVI > 100 µM | SR > 100 µM

COc1ccc(CC2c3c(cc(OC)c(OC)c3OC)CCN2C)cc1OC (stereo not drawn)
inactive: OVCAR-5 > 100 µM | OVCAR-3 > 100 µM | SK-MEL-5 > 100 µM | NCI-H460 > 100 µM | EKVX > 100 µM | SN12C > 100 µM | NCI-H23 > 100 µM | U-251 > 100 µM | NCI-H522 > 100 µM | KM12 > 100 µM | M14 > 100 µM

CC(=O)NC(CCCNC(=O)NCCCl)C(=O)NCc1ccccc1 (stereo not drawn)
inactive: OVCAR-3 > 100 µM | SK-MEL-5 > 100 µM | NCI-H460 > 100 µM | EKVX > 100 µM | SN12C > 100 µM | HOP-92 > 100 µM | NCI-H226 > 100 µM | NCI-H23 > 100 µM | U-251 > 100 µM | NCI-H522 > 100 µM | HL-60 > 100 µM | KM12 > 100 µM | M14 > 100 µM | SR > 100 µM

CN1C/C(=C\C=C\c2ccccc2)C(=O)/C(=C/C=C/c2ccccc2)C1
inactive: OVCAR-5 > 100 µM | OVCAR-3 > 100 µM | SK-MEL-5 > 100 µM | NCI-H460 > 100 µM | EKVX > 100 µM | SN12C > 100 µM | NCI-H226 > 100 µM | NCI-H23 > 100 µM | U-251 > 100 µM | NCI-H522 54 µM | KM12 > 100 µM | M14 > 100 µM | LOX IMVI > 100 µM

O=C(O)c1ccccc1Cc1ccco1
inactive: OVCAR-5 > 100 µM | OVCAR-3 > 100 µM | SK-MEL-5 > 100 µM | NCI-H460 > 100 µM | EKVX > 100 µM | SN12C > 100 µM | HOP-92 > 100 µM | NCI-H226 > 100 µM | NCI-H23 > 100 µM | U-251 > 100 µM | NCI-H522 > 100 µM | KM12 > 100 µM | M14 > 100 µM | SR > 100 µM

CCc1cccc(C)c1NS(=O)(=O)c1ccccc1
inactive: OVCAR-5 > 100 µM | OVCAR-3 > 100 µM | SK-MEL-5 > 100 µM | NCI-H460 > 100 µM | EKVX > 100 µM | NCI-H226 24.3 µM | NCI-H23 > 100 µM | U-251 > 100 µM | HL-60 > 100 µM | KM12 > 100 µM | M14 > 100 µM

C/C(=N\NC(C)(C)C)c1sc(-c2nc(C)c(/C(C)=N/NC(C)(C)C)s2)nc1C
inactive: OVCAR-3 > 100 µM | SK-MEL-5 > 100 µM | EKVX > 100 µM | SN12C > 100 µM | HOP-92 > 100 µM | NCI-H226 > 100 µM | NCI-H23 > 100 µM | U-251 > 100 µM | NCI-H522 > 100 µM | HL-60 > 100 µM | M14 > 100 µM | LOX IMVI > 100 µM | SR > 100 µM

CC1=C(C(=O)CC(=O)C(=O)Nc2cc(C)ccc2C)Sc2ccccc2N1
inactive: OVCAR-5 > 100 µM | OVCAR-3 > 100 µM | SK-MEL-5 > 100 µM | NCI-H460 > 10 µM | EKVX > 100 µM | SN12C > 100 µM | HOP-92 85.7 µM | NCI-H226 > 100 µM | NCI-H23 > 100 µM | U-251 > 100 µM | NCI-H522 > 100 µM | HL-60 > 100 µM | KM12 > 100 µM | M14 > 100 µM | LOX IMVI > 100 µM

CCOP(=O)(OCC)/C(C#N)=C/c1ccc[nH]1
inactive: OVCAR-5 > 100 µM | OVCAR-3 > 100 µM | SK-MEL-5 > 100 µM | NCI-H460 > 100 µM | SN12C > 100 µM | HOP-92 > 100 µM | NCI-H226 > 100 µM | NCI-H23 > 100 µM | U-251 > 100 µM | NCI-H522 > 100 µM | HL-60 > 100 µM | KM12 > 100 µM | M14 > 100 µM | LOX IMVI > 100 µM | SR > 100 µM

CN(c1ccccc1)C1C(=O)N(c2ccccc2)C1/C=C/c1ccccc1 (stereo not drawn)
inactive: OVCAR-5 > 100 µM | OVCAR-3 > 100 µM | SK-MEL-5 > 100 µM | NCI-H460 > 100 µM | EKVX > 100 µM | SN12C > 100 µM | HOP-92 > 100 µM | NCI-H226 > 100 µM | NCI-H23 > 100 µM | U-251 > 100 µM | NCI-H522 > 100 µM | HL-60 > 100 µM | KM12 > 100 µM | SR > 100 µM

CCOC(C[C@H](O)[C@H]1COC(=S)S1)OCC
inactive: OVCAR-3 > 100 µM | SK-MEL-5 > 100 µM | NCI-H460 > 100 µM | EKVX > 100 µM | SN12C > 100 µM | NCI-H226 > 100 µM | NCI-H23 > 100 µM | U-251 > 100 µM | NCI-H522 > 100 µM | HL-60 > 100 µM | KM12 > 100 µM | M14 > 100 µM | LOX IMVI > 100 µM | SR > 100 µM

O=C(c1ccccc1)[C@H]1Nc2ccc(Cl)cc2C2c3ccccc3CC21 (stereo partly drawn)
inactive: OVCAR-5 > 100 µM | OVCAR-3 21 µM | SK-MEL-5 21.3 µM | NCI-H460 63.5 µM | SN12C 83.2 µM | NCI-H226 36.7 µM | NCI-H23 60.3 µM | U-251 47.6 µM | NCI-H522 95.3 µM | KM12 > 100 µM | M14 31.6 µM | LOX IMVI 50.4 µM | SR 71.6 µM

N#Cc1ccc(/C=N\N2C(=O)c3ccccc3C2=O)cc1
inactive: OVCAR-5 > 100 µM | OVCAR-3 > 100 µM | SK-MEL-5 > 100 µM | NCI-H460 > 100 µM | EKVX > 100 µM | SN12C > 100 µM | HOP-92 > 100 µM | NCI-H226 > 100 µM | NCI-H23 > 100 µM | HL-60 > 100 µM | KM12 > 100 µM | M14 > 100 µM | LOX IMVI > 100 µM | SR > 100 µM

COc1cc2ccnc3c(=C(SC)SC)c(=O)c(c1OC)c23
inactive: OVCAR-5 20.9 µM | OVCAR-3 14.9 µM | SK-MEL-5 > 10 µM | NCI-H460 35.3 µM | EKVX > 10 µM | SN12C 15.2 µM | HOP-92 5.64 µM | NCI-H23 > 10 µM | U-251 42.7 µM | NCI-H522 1.56 µM | HL-60 2.26 µM | KM12 22.4 µM | M14 13.9 µM | LOX IMVI 2.87 µM

Cc1cc(C)c(/C=N/NS(=O)(=O)c2ccccc2)c(C)c1
inactive: OVCAR-5 > 100 µM | OVCAR-3 47.6 µM | SK-MEL-5 > 100 µM | NCI-H460 59.4 µM | EKVX 62.7 µM | SN12C 92.3 µM | HOP-92 36.3 µM | NCI-H226 > 100 µM | NCI-H23 54.3 µM | U-251 > 100 µM | HL-60 91.6 µM | KM12 > 100 µM | M14 > 100 µM | LOX IMVI > 100 µM | SR 31.4 µM

CN1C/C(=C\c2ccco2)c2nc(N)nc(-c3ccco3)c2C1
inactive: OVCAR-5 > 100 µM | OVCAR-3 43.9 µM | SK-MEL-5 72.8 µM | NCI-H460 > 100 µM | EKVX > 100 µM | SN12C > 100 µM | NCI-H226 34.5 µM | NCI-H23 > 100 µM | U-251 > 100 µM | NCI-H522 > 100 µM | HL-60 52.7 µM | KM12 31.5 µM | M14 > 100 µM | LOX IMVI 60.4 µM

C1=CC=C2NCCCCCC/N=C3\C=CC=CC=C3NCCc3cccc(c3)CC/N=C/2C=C1
inactive: OVCAR-5 14.4 µM | OVCAR-3 27.7 µM | NCI-H460 5.42 µM | EKVX 37 µM | SN12C 29.7 µM | HOP-92 23.7 µM | NCI-H226 32.5 µM | NCI-H23 13.1 µM | U-251 18.7 µM | NCI-H522 16.9 µM | HL-60 5.43 µM | KM12 14.7 µM | M14 11 µM | LOX IMVI 4.63 µM | SR 9.82 µM

COc1ccc2nc3cc(Cl)ccc3c(Sc3ccccc3[N+](=O)[O-])c2c1
inactive: OVCAR-5 > 100 µM | OVCAR-3 > 100 µM | SK-MEL-5 > 100 µM | NCI-H460 > 100 µM | EKVX > 100 µM | SN12C 28.1 µM | HOP-92 90.2 µM | NCI-H226 17.7 µM | NCI-H23 > 100 µM | U-251 > 100 µM | NCI-H522 > 100 µM | KM12 > 100 µM | M14 > 100 µM | LOX IMVI > 100 µM | SR > 100 µM
